Laboratory results from a melting point compilation (Tetko et al.; mined from patent text by program, amines drawn as free bases though some values may be those of a salt).

| melting point [°C] | Compound |
| --- | --- |
| 93 to 94 | c1ccc(CSc2nc3cnccn3n2)cc1 |
| 174 to 175 | Cc1c(C(N)=O)sc2cncc(Oc3ccc(Cl)cc3)c12 |
| 145 | CCOC(=O)c1cc(NCc2ccccc2)c(Nc2ccc(OC)cc2)c(S(N)(=O)=O)c1 |
| 252 to 254 | Cc1csc(NC(=O)c2cn(-c3ccccc3)c3ccccc3c2=O)n1 |
| 211 to 212 | CCS(=O)(=O)NCCCCn1c(C)nc2c(N)nc3ccccc3c21 |
| 164 to 166 | CC1(C(F)(F)F)CC(=O)C(C(=O)c2ccc(C(F)(F)F)cc2[N+](=O)[O-])C(=O)N1 (centres undefined) |
| 139 to 141 | O=[N+]([O-])c1ccccc1N=Nc1ccccc1 |
| 158 to 160 | COc1ccc2cccc(C(CCO)CNC(=O)C3CC3)c2c1 (centres undefined) |
| 194 to 196 | Cc1ccc(C(O)C2OC(n3cc(C)c(=O)[nH]c3=O)CC2(O)c2ccc(C)cc2)cc1 (centres undefined) |
| 276 | Cc1ccc(C2CN(c3cc4nc5c(cc4cc3F)c(=O)c(C(=O)O)cn5C)CCN2)cc1C (racemic) |
| 167 to 168 | CC1(C)Oc2c([N+](=O)[O-])ccc(Cl)c2C1=O |
| 139 to 140 | Cc1oc(-c2ccccc2)nc1COc1cc(COc2ncccc2C#N)on1 |
| 220 to 221 | CNC1(c2ccccc2Cl)C(=O)N(S(=O)(=O)c2ccc([N+](=O)[O-])cc2)c2ccc(Cl)cc21 (centres undefined) |
| 195 to 202 | CC(CC(=O)O)C(=O)c1ccc(C(=O)C(C)CC(=O)O)cc1 (centres undefined) |
| 141 to 143 | CC(C)c1nc2cc(NC(=O)c3c(C(=O)N4CCCC4)cnn3C)ccn2n1 |
| 53.6 to 55.7 | CCCCCCCCCCCCCCCCCC1OCC(COC(O)CCCCC=O)O1 (centres undefined) |
| 247 | ON=C(c1ccccc1)c1nsc2nc3ccccc3n12 |
| 102 to 103 | CCCc1nnc(Cc2cn(-c3ccccc3)nc2OCc2ccc(OCc3nc(-c4ccco4)oc3C)c(OC)c2)o1 |
| 93 to 94 | CCCCCCCN(CCN1CCN(CCCSc2nc3ccccc3o2)CC1)C(=O)Nc1c(C(C)C)cccc1C(C)C |
| 126 to 128 | CCC(CC)CNC(=O)c1ccc2cccc(Cc3ccc(C(=O)NS(=O)(=O)c4ccccc4C)cc3OC)c2c1 |
| 63 to 64 | CCNC1=NN(c2ccc(Cl)cc2)CC1C (centres undefined) |
| 42 to 45 | O=[N+]([O-])c1cc(Br)ccc1-c1ccccc1F |
| 162 to 163 | O=C(O)COc1cccc2c1CCC(Cn1cc(C(c3ccccc3)c3ccccc3)ccc1=O)C2 (centres undefined) |
| 76 to 79 | Cc1c(-c2ccccc2)nn(C(C)C(=O)N(C)C)c1C (centres undefined) |

| melting point [°C] | Compound |
| --- | --- |
| 152 to 154 | NS(=O)(=O)c1ccc(-c2cc(C(=O)CCCO)nn2C2CCCCC2)cc1 |
| 228 to 230 | O=c1[nH]c(N2CCOCC2)nc2c1C=CCC2 |
| 104 to 106 | CCOC(=O)c1nccn1Cc1ccccc1N |
| 63 to 65 | CCN(CC)CCCC(=O)c1ccc2c(c1)Cc1cc(C(=O)CCCN(CC)CC)ccc1O2 |
| 158 | O=c1nc(-c2cccs2)sc2ccccc12 |
| 128 | COc1ccc(S(=O)(=O)N(CC(N)=O)c2ccc(Cl)cc2C(O)c2c(Cl)cccc2Cl)cc1OC (centres undefined) |
| 137 to 138 | COc1ccc(N2CCN(Cc3ccc(CNC(C)=O)cc3)CC2)cc1 |
| 92 to 96 | COC(=O)c1ccc(Cn2c(C(=O)C3CCN(CCC4(c5ccccc5)CCN(C(=O)c5cc(OC)c(OC)c(OC)c5)C4)CC3)nc3ccccc32)cc1 (centres undefined) |
| 128 to 129 | CCc1cc(C)cc(C)c1CC(=O)O |
| 135 to 136 | CCCOc1ccccc1C(=O)Nc1ccncc1C(N)=O |
| 95 to 98 | O=C(CCCCC1SCC2NC(=O)NC21)NCCOCCOCCN1C(=O)C=C(Br)C1=O (centres undefined) |
| 209 to 210 | COc1ccc(Nc2ccc(-c3ccnc(Nc4cc(OC)c(OC)c(OC)c4)n3)cn2)cc1 |
| 140 | Cc1sc2cc(C3=NCCS3)[nH]c2c1N(C)S(=O)(=O)c1cccs1 |
| 81.7 to 82.8 | CCCCCS(=O)(=O)NC(=O)CCc1ccc(OCCOC)cc1OCC1CC1 |
| 53 | CON=Cc1cc(Cl)cc(Cl)c1 |
| 228 to 230 | Cc1nn(C)c2cc(-c3ccc(F)cc3)nc(-c3ccc(S(C)(=O)=O)cc3)c12 |
| > 290 | CC(C)c1[nH]c(=O)[nH]c1-c1cc(C(C)(C)C)c(O)c(C(C)(C)C)c1 |
| 97 to 98 | CCCC(=O)SC1CCN(C(C(=O)C2CC2)c2ccccc2F)CC1 (centres undefined) |
| 140 | CCOC(=O)C(C(=O)CCC(C)C)C1c2ccccc2C(=O)N1c1ccc2ccc(F)nc2n1 (centres undefined) |
| 179 | CCn1ncnc1COc1nn2c(-c3ccc(F)cc3)nncc2c1-c1ccccc1F |
| 84 to 86 | COCC1(O)CCN(c2c(F)cc([N+](=O)[O-])cc2F)CC1 |
| 239 to 240 | O=C(O)c1cc(-c2ccccc2)cnc1Cl |
| 65 to 66 | Cc1cc(CCCCCCc2c(Cl)cc(C3=NCCO3)cc2Cl)on1 |
| 130 to 131 | NC(=O)c1cccc2c1OC(F)(F)O2 |

| melting point [°C] | Compound |
| --- | --- |
| 162 to 165 | COc1ccc(CNC(=O)c2c(-c3ccncc3)c(-c3ccc(F)cc3)nn2C)cc1 |
| 227 | O=C(CCCCC(=O)NC1CCc2ccccc21)NC1CCc2ccccc21 (centres undefined) |
| 142 to 143 | COC(=O)ON=C1C(=O)c2ccccc2-c2ccccc21 |
| 140 | COCCNC(=O)Nc1nc2cc(OS(=O)(=O)c3c(C)cc(C)cc3C)ccc2[nH]1 |
| 190 | O=C(NC[C@@H](C(=O)NO)N1CCCCC1)c1ccc(OCc2ccncc2)cc1 |
| 234 to 236 | Nc1nc(N)c(C(=O)N=CNN2CCSCC2)nc1Cl |
| 209 to 211 | CN(Cc1ccc(NC(=O)C2=Cc3cc(-c4ccc(OCC(=O)OC(C)(C)C)cc4)ccc3S(=O)(=O)CC2)cc1)C1CCOCC1 |
| 148 to 150 | CCOc1cc2cc(CO)c(CO)c(-c3ccnc(Cl)c3)c2cc1OCC |
| 145 to 147 | O=C(Nc1nc(Cl)nc(Cl)n1)NS(=O)(=O)c1cccc2cccnc12 |
| 213 to 215 | CNC(=O)NC(Cc1c[nH]c2ccccc12)C(=O)NCc1cc(C(F)(F)F)cc(C(F)(F)F)c1 (centres undefined) |
| 175 to 179 | CCN1C(=O)C2CC(c3ccc([N+](=O)[O-])cc3)(C2)C1=O |
| 140 to 144 | c1ccc(-c2cc3c(ccc4ccccc43)o2)cc1 |
| 68 to 69 | COc1cccc(-c2noc3cc(F)ccc23)c1 |
| 147 to 148 | CSC1C(=O)Nc2c(C(=O)c3ccccc3F)cccc21 (centres undefined) |
| 64 to 65 | CSC(=O)c1ccccc1NC1CCN(C)CC1 |
| 114 to 115 | Cc1oc(-c2ccccc2)nc1COc1ccc(C=CC=O)cc1 |
| 83 to 85 | CC(C)(CNC(=O)Cc1ccccc1)NCC(O)c1cc(Cl)c(NC(=O)C(C)(C)C)c(Cl)c1 (centres undefined) |
| 277 to 278 | Cc1cc(C=C2SC(=S)NC2=O)cc2c1OCC(=O)N2Cc1ccc(CN2CCCCC2)cc1 |
| 254 | Cn1ncnc1COc1ccc2nnc(-c3ccccc3)n2n1 |
| 87 to 89.5 | CNC(=NCCCCc1nccs1)NC#N |
| 262 | COC[C@H]1CCCN1C(=O)c1ccc(-c2[nH]nc3c2C(=O)c2c(NC(=O)NN4CCOCC4)cccc2-3)s1 |
| 188 to 191 | CN(C)C(=O)c1cccnc1S(N)(=O)=O |
| 146 to 148 | CC1(CC2CCCC2)Cc2cc(CC(=O)O)c(Cl)c(Cl)c2C1=O (centres undefined) |
| 218 to 227 | O=C(Nc1nc(-c2ccco2)c(C(=O)c2ccccn2)s1)c1ccncc1 |

| melting point [°C] | Compound |
| --- | --- |
| 134 to 136 | CC(c1oc2ccccc2c(=O)c1-c1cccc(F)c1)n1nc(-c2ccc(Cl)c(O)c2)c2c(N)ncnc21 (centres undefined) |
| 280 | CN1CCN(c2ncc3c(=O)c(C(=O)O)cn(C)c3n2)CC1 |
| 176 | CCOC(=O)N1CCC(=C2c3sccc3C=Cn3ccnc32)CC1 |
| 221 | COc1ccc(C(=O)Nc2ccc3ccc(Br)nc3n2)cc1 |
| 219 | Nc1c(Cl)cc(-c2nc(C3CCNCC3)no2)c2c1CCO2 |
| 278 to 282 | CC(=O)Oc1ccc(Cc2n[nH]c3c2c(=O)n(-c2ccccc2)c2ncccc32)cc1 |
| 133 to 134 | Cc1c(-c2ccncc2)oc2c1C(=O)C(C)(C)CC2 |
| 190 to 191 | O=C1N=CC(OCC2CCC2)(C(F)(F)F)c2cc(F)ccc2N1 (centres undefined) |
| 156 to 158 | C=CCOC(=O)c1ccc(NC(C)=O)cc1O |
| 197 to 200 | COc1ccc2c(CC3CCN(CCc4c(C)sc5c4CCN(C(C)=O)C5)CC3)noc2c1OC |
| 201 to 202 | CCOC(=O)CCC(=O)c1cnc2c(OC)cccc2c1NCc1ccccc1 |
| 165 to 166 | O=C(NCc1ccccc1)Nc1cc(N2CC(c3ccccc3)CC2=O)ccn1 (centres undefined) |
| 48 to 50 | COc1ccc(SCc2ccccc2)cc1 |
| 184 | CS(=O)(=O)C(=C1CN(C(c2ccccc2)c2ccccc2)C1)c1cccc([N+](=O)[O-])c1 |
| 134 | Cc1ccc(CN(O)C(N)=O)s1 |
| 150 to 152 | COc1ccccc1N1CCN(CCOc2ccc(-c3cn4cccnc4n3)cc2)CC1 |
| 159 to 161 | CC(CC(C)(C)O)Nc1ncc2cc(Oc3ccc(F)cc3F)c(=O)n(C)c2n1 (centres undefined) |
| 152 to 154 | COc1cc(Nc2c(C#N)cnc3cc(/C=C/CCN4CCN(C)CC4)ccc23)c(Cl)cc1Cl |
| 160 to 163 | COc1ccc(CNc2nc(N3CCC[C@H]3CO)ncc2C(=O)NCc2ncccn2)cc1Cl |
| 69 to 71 | O=Cc1csc(N2CCSCC2)n1 |
| 98 | CC(=O)Nc1ccc(S(=O)(=O)NCCc2ccccc2)cc1 |

| Compound | melting point [°C] |
| --- | --- |
| COC(=O)CN1C(=S)CN=C(c2ccccc2Cl)c2cc(Cl)ccc21 | 191 to 192 |
| Cc1[nH]c2ccccc2c1CCN1CCN(N)CC1 | 118 to 120 |
| CN1CC(CCCO)CC2(OCCO)c3cccc4[nH]cc(c34)CC12 (centres undefined) | 212 to 215 |
| COc1ccc(C=NO)cc1-c1cc2c(cc1C)C(C)(C)CCC2(C)C | 152 |
| N#CC(=NO)c1cccnc1 | 234 to 238 |
| CC(O)C#Cc1ncn2c1CN(C)C(=O)c1ccccc1-2 (centres undefined) | 161 to 162 |
